Experimental findings from ChEMBL document CHEMBL3091428, “Synthesis and initial biological evaluation of substituted 1-phenylamino-2-thio-4,5-dimethyl-1H-imidazole derivatives” (Bioorg Med Chem Lett, 2013) are described below.

Converted amounts (≈) assume the structure as drawn.

For one series, the system named is Pseudomonas aeruginosa. The experiment in a line: Antimicrobial activity against Pseudomonas aeruginosa ATCC 27853 after 24 hrs by broth microdilution method. It counts as functional. The settings on record: ATCC 27853, 24 h.
The test system of a further series is Candida albicans. The experiment in a line: Antimicrobial activity against Candida albicans ATCC 90028 after 24 hrs by broth microdilution method. It counts as functional. The settings on record: ATCC 90028, 24 h. Background: Broth dilution looks for growth in wells or tubes with falling amounts of substance.
The test system of another series is Pichia kudriavzevii. The experiment in a line: Antimicrobial activity against Candida krusei ATCC 6258 after 24 hrs by broth microdilution method. The class given is functional. As to conditions: ATCC 6258, 24 h.
The test system of series [1] is Enterococcus faecalis. The experiment in a line: Antimicrobial activity against Enterococcus faecalis ATCC 29212 after 24 hrs by broth microdilution method. The class given is functional. As to conditions: ATCC 29212, 24 h.
In the next series the test system is Klebsiella pneumoniae. The experiment in a line: Antimicrobial activity against Klebsiella pneumoniae ATCC 13883 after 24 hrs by broth microdilution method. As to conditions: ATCC 13883, 24 h. It counts as functional.
The subject of another series is Staphylococcus aureus. The experiment in a line: Antimicrobial activity against Staphylococcus aureus ATCC 25923 after 24 hrs by broth microdilution method. The class given is functional. As to conditions: ATCC 25923, 24 h.
For series [2], the system named is Artemia salina. The experiment in a line: Toxicity in brine shrimp larvae assessed as mortality at 800 ug/ml after 24 hrs. The class given is organism-based. As to conditions: in vivo.
Series [3] concerns Escherichia coli. The experiment in a line: Antimicrobial activity against Escherichia coli ATCC 25922 after 24 hrs by broth microdilution method. The settings on record: ATCC 25922, 24 h. The class given is functional.
In the next series the test system is Nakaseomyces glabratus. The experiment in a line: Antimicrobial activity against Candida glabrata ATCC 90030 after 24 hrs by broth microdilution method. The settings on record: ATCC 90030, 24 h. The class given is functional.
Series [4] is described as follows: Toxicity in brine shrimp larvae assessed as mortality after 24 hrs. The settings on record: artemia salina, in vivo. It counts as organism-based.
Series [5] has as its system Artemia salina. The experiment in a line: Toxicity in brine shrimp larvae assessed as mortality at 50 ug/ml after 24 hrs. It counts as organism-based. The settings on record: in vivo.
Series [6] deals with Escherichia coli. The experiment in a line: Antimicrobial activity against Escherichia coli ATCC 35218 after 24 hrs by broth microdilution method. The class given is functional. As to conditions: ATCC 35218, 24 h.
The subject of series [7] is Artemia salina. The experiment in a line: Toxicity in brine shrimp larvae assessed as mortality at 100 ug/ml after 24 hrs. The class given is organism-based. As to conditions: in vivo.
For another series, the system named is Listeria monocytogenes. The experiment in a line: Antimicrobial activity against Listeria monocytogenes ATCC 19115 after 24 hrs by broth microdilution method. As to conditions: ATCC 19115, 24 h. It counts as functional.
For series [8], the system named is Enterococcus faecalis. The experiment in a line: Antimicrobial activity against Enterococcus faecalis ATCC 51299 after 24 hrs by broth microdilution method. It counts as functional. The settings on record: ATCC 51299, 24 h.
For series [9], the system named is Artemia salina. The experiment in a line: Toxicity in brine shrimp larvae assessed as mortality at 1600 ug/ml after 24 hrs. The class given is organism-based. As to conditions: in vivo.
Series [10] relates to Artemia salina. The experiment in a line: Toxicity in brine shrimp larvae assessed as mortality at 400 ug/ml after 24 hrs. It counts as organism-based. The settings on record: in vivo.
Series [11] concerns Artemia salina. The experiment in a line: Toxicity in brine shrimp larvae assessed as mortality at 200 ug/ml after 24 hrs. The class given is organism-based. The settings on record: in vivo.

Broadly, the MIC is the lowest concentration found to suppress growth. Lower therefore signals inhibition by little substance. What is called LC50 is the concentration lethal to half of the exposed cells or organisms.

On to `Cc1nc(SCC(=O)c2ccc(F)c(F)c2)n(Nc2ccc(Cl)cc2)c1C`, for which the MIC in the series on Pseudomonas aeruginosa came out at 400 mg/L (≈ 981 µM); with Candida albicans, 50 mg/L (≈ 123 µM); against Pichia kudriavzevii it was 100 mg/L (≈ 245 µM); with Enterococcus faecalis [1] it was 50 mg/L (≈ 123 µM); against Klebsiella pneumoniae, 400 mg/L (≈ 981 µM); against Staphylococcus aureus it was 400 mg/L (≈ 981 µM). Moreover, the MIC with Escherichia coli [3] came to 400 mg/L (≈ 981 µM); with Nakaseomyces glabratus, 100 mg/L (≈ 245 µM); with Escherichia coli [6], 800 mg/L (≈ 1960 µM); in the series on Listeria monocytogenes it was 50 mg/L (≈ 123 µM); in the series on Enterococcus faecalis [8] it was 400 mg/L (≈ 981 µM). Further, the Activity result in the series with Artemia salina [2] is listed as “Toxic”; in the series on Artemia salina [5], “Non-toxic”; with Artemia salina [7] it was “Non-toxic”; in the series on Artemia salina [9], “Toxic”. Besides, in series [4], the 50% lethal concentration (LC50) at 24 h came to 359 mg/L (≈ 881 µM).

`Cc1nc(SCC(=O)c2ccc(F)c(F)c2)n(Nc2ccccc2)c1C`: the MIC came to 400 mg/L (≈ 1070 µM) in the series on Pseudomonas aeruginosa; 400 mg/L (≈ 1070 µM) in the series with Candida albicans; 200 mg/L (≈ 536 µM) against Pichia kudriavzevii; 25 mg/L (≈ 66.9 µM) in the series with Enterococcus faecalis [1]; 400 mg/L (≈ 1070 µM) with Klebsiella pneumoniae; 100 mg/L (≈ 268 µM) against Staphylococcus aureus. Further, the MIC was 400 mg/L (≈ 1070 µM) against Escherichia coli [3]; 400 mg/L (≈ 1070 µM) against Nakaseomyces glabratus; 400 mg/L (≈ 1070 µM) with Escherichia coli [6]; 50 mg/L (≈ 134 µM) in the series on Listeria monocytogenes; 400 mg/L (≈ 1070 µM) in the series on Enterococcus faecalis [8]. The median lethal concentration (LC50) at 24 h in [4] was found to be 465 mg/L (≈ 1250 µM).

As to `COc1ccc(C(=O)CSc2nc(C)c(C)n2Nc2ccc(C)cc2)cc1`, the minimal inhibitory concentration (MIC) with Pseudomonas aeruginosa was determined as 400 mg/L (≈ 1050 µM); against Candida albicans, 25 mg/L (≈ 65.5 µM); against Pichia kudriavzevii it was 25 mg/L (≈ 65.5 µM); against Enterococcus faecalis [1], 25 mg/L (≈ 65.5 µM); with Klebsiella pneumoniae, 400 mg/L (≈ 1050 µM); in the series with Staphylococcus aureus, 400 mg/L (≈ 1050 µM). Also, the MIC against Escherichia coli [3] was 100 mg/L (≈ 262 µM); in the series with Nakaseomyces glabratus, 100 mg/L (≈ 262 µM); with Escherichia coli [6] it was 400 mg/L (≈ 1050 µM); in the series on Listeria monocytogenes, 50 mg/L (≈ 131 µM); against Enterococcus faecalis [8], 400 mg/L (≈ 1050 µM). For the same compound, the Activity result in the series on Artemia salina [2], in the series with Artemia salina [10] and in the series on Artemia salina [9] was “Toxic” in each case. Besides, the LC50 at 24 h in series [4] was found to be 153 mg/L (≈ 400 µM).

As to `COc1ccc(C(=O)CSc2nc(C)c(C)n2Nc2ccc(C)cc2)cc1OC`, the MIC worked out at 400 mg/L (≈ 972 µM) against Pseudomonas aeruginosa; 100 mg/L (≈ 243 µM) against Candida albicans; 50 mg/L (≈ 121 µM) in the series with Pichia kudriavzevii; 100 mg/L (≈ 243 µM) against Enterococcus faecalis [1]; 400 mg/L (≈ 972 µM) in the series on Klebsiella pneumoniae; 400 mg/L (≈ 972 µM) with Staphylococcus aureus. The minimal inhibitory concentration (MIC) in the series on Escherichia coli [3] came to 200 mg/L (≈ 486 µM); against Nakaseomyces glabratus it was 100 mg/L (≈ 243 µM); against Escherichia coli [6] it was 200 mg/L (≈ 486 µM); with Listeria monocytogenes it was 50 mg/L (≈ 121 µM); in the series with Enterococcus faecalis [8] it was 400 mg/L (≈ 972 µM). For the same compound, the LC50 at 24 h in series [4] turned out to be 1310 mg/L (≈ 3180 µM). Further, the Activity result with Artemia salina [5], with Artemia salina [7] and in the series with Artemia salina [11] was “Non-toxic” each time.
